Reference: patent US4839379A, “Substituted azabicycloalkanes, the use thereof, pharmaceutical compositions containing them” (Ciba-Geigy Corporation, priority 1982, dated 1989)

Tested on: aromatase
Assay: aromatase assay according to Graves and Salhanick using human placental microsomes in vitro
Assay type: biochemical
Protocol: The novel compounds of formula I and their pharmaceutically acceptable salts have, for example, valuable pharmacological properties as aromatase inhibitors. […] In this experimental method, the formation of water with tritium isotopes and 17β-oestradiol obtained from [1β,2β--^3 H]-testosterone is measured as a result of the action of a compound of the formula I on the formation of the hydrogenated form of the aromatase coenzyme, nicotinamide adenine dinucleotide phosphate (NADPH).

## Nc1ccc(C23CC2C(=O)N(CC2CCCCC2)C3=O)cc1 (centres unmarked) [Example 12, 1-(4-Aminophenyl)-3-cyclohexylmethyl-3-azabicyclo[3.1.0]hexane-2,4-dione]
Compared with measurements without addition of compound
  enzyme activity (NADPH content); content of water with radioactive tritium isotopes formed from [1β,2β-3H]-testosterone: substantially reduces the enzyme activity
Comparison with aminoglutethimide
  diminution of enzyme activity in comparison measurements with known aromatase inhibitors: substantially greater than with the addition of other known aromatase inhibitors, e.g. aminoglutethimide
